Assays:
[1] = tested on: metastatic sentinel lymph node; assay: Detection of metastatic sentinel lymph node (ex vivo fluorescence, H & E staining, immunostaining); assay type: in vivo, rabbit; settings: n = 4 for ICG group, n = 5 for ICG:MSA group
Experimental: A VX2 rabbit tumor model (Radiology, 2005; 234:423-430) was established, and after 2 weeks, 60 μM of each of ICG and ICG:MSA was injected subcutaneously into the peritumor of the tumor model. Then, the efficiency with which each of ICG and ICG:MSA detects a sentinel lymph node was examined using a fluorescence imaging system (developed by the applicant). Dissected normal and metastatic lymph nodes were confirmed ex vivo by fluorescence, and whether cancer metastasized to the lymph nodes was examined by H & E tissue staining and immunostaining.

lymph nodes = assay: Biodistribution after injection into the mouse footpad; assay type: in vivo
Experimental: Each of the ICG: MSA, prepared in Example 3, and ICG, was treated into U937 cells (Korean Cell Line Bank (KCLB) No. 21593.1) activated with PMA (phorbol 12-myristate 13-acetate, Sigma, USA) (FIG. 9a), and the distribution thereof in the cells was monitored. […] In addition, each of ICG:MSA and ICG was injected into the mouse footpad, and the biodistribution thereof was examined.

In the case of `CC1(C)C(/C=C/C=C/C=C/C=C2\N(CCCCS(=O)(=O)O)c3ccc4ccccc4c3C2(C)C)=[N+](CCCCS(=O)(=O)[O-])c2ccc3ccccc3c21` [ICG, Indocyanine green], the “Metastatic SLN rate” value [1] is reported as 50%, the Total [1] is reported as 2 and the biodistribution (lymph nodes) is reported as “distributed in the popliteal lymph nodes and did spread to the axillary lymph nodes within a short time”.

From US10159756B2, “Complex of mannosyl serum albumin, method of preparing the same, optical imaging probe and kit comprising the same” (Korea University Research and Business Foundation, priority 2014, dated 2018)
